Laboratory results as given in patent EP4810052A2, “HCRHR2 SELECTIVE POLYPEPTIDES” (Gubra A/S, priority 2023, dated 2026).
Starred links: 1 amine or outer side, 2 acyl side, 3 side chain; linkers in the order of their positions; H or OH if unused. Non-standard residues stand in square brackets, D forms with d. Residues, ends and D or L forms follow the SMILES beside them. Groups on a side chain read outwards from the residue. *: point of attachment. C20 diacid = O=C(O)CCCCCCCCCCCCCCCCCCC(=O)*; γGlu = O=C(O)[C@H](CCC(=O)[*:2])N[*:1]; Nle = CCCC[C@H](N)C(=O)O; AEEA = NCCOCCOCC(=O)O

Experiments:
hCRHR2 = target: T1, hCRHR2 (Homo sapiens, UniProt Q13324); test: HTRF cAMP assay, determination of hCRHR2 potency (peptide libraries 5 conc., purified peptides 11 conc.); assay type: cell-based; conditions: Table 3, matched molecular pairs X^38 L vs Nle, peptide library of Example 4; read-out: hCRHR2 pEC50 (converted)
T1 sequence (Q13324 1-411): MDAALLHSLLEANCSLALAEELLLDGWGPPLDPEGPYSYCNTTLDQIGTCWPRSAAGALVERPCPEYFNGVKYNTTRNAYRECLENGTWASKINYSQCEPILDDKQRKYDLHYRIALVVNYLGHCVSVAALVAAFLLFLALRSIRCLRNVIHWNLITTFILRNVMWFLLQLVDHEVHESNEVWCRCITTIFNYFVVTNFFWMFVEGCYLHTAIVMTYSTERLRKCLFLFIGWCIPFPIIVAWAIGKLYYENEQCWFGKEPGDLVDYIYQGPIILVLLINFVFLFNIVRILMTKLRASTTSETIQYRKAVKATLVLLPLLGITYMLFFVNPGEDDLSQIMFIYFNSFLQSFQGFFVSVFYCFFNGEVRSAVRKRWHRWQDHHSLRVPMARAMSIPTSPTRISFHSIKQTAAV
Procedure, shortened: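 CHO-K1 cells stably expressing human CRHR2, thawed from frozen stocks just before use and run in suspension; cAMP measured by competitive HTRF immunoassay (cryptate anti-cAMP, d2-cAMP). Agonist peptides tested at 5 (libraries) or 11 (purified) concentrations; EC50 from sigmoid variable-slope nonlinear regression.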

hCRHR1 = target: T2, hCRHR1 (Homo sapiens, UniProt P34998); test: HTRF cAMP assay, determination of hCRHR1 potency (peptide libraries 5 conc., purified peptides 11 conc.); assay type: cell-based; conditions: Table 3, matched molecular pairs X^38 L vs Nle, peptide library of Example 4; read-out: hCRHR1 pEC50 (converted)
T2 sequence (P34998 24-415): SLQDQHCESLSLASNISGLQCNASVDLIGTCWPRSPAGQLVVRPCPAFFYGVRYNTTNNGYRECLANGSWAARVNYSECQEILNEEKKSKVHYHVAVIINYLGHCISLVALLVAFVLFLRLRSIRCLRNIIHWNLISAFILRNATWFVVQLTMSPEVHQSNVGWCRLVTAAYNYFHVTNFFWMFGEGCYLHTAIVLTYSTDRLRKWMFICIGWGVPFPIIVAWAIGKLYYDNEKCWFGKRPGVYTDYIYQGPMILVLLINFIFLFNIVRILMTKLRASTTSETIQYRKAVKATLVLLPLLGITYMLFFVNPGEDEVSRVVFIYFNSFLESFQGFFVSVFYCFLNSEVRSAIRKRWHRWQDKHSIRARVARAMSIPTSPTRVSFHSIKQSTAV
Description: HTRF (CisBio) cAMP assay: The assay technology has thoroughly been described in the CisBio HTRF cAMP assay Kit manual (# 62AM4PEC). Briefly, time resolved fluorescence technic was applied to measure cAMP. This technic is based on a competitive immunoassay using cryptate-labelled anti-cAMP antibody and d2-labeled cAMP. In the absence of cellular cAMP, the anti-cAMP cryptate conjugate may get into proximity to cAMP-d2 conjugate and energy (FRET) can be transferred from cryptate to d2. CHO-K1 cells stably expressing the human corticotropin-releasing hormone receptor 1 (Eurofins/DiscoverX Cat #95-0047C2 hCRHR1 stable monoclonal cell lines) were used as cells in suspension, brought to life from frozen cell stocks immediately before assay performance. […] Concentration-response evaluation of compounds was performed with 5 concentrations of agonist peptides and EC50 values were calculated by nonlinear regression using sigmoid concentration-response with variable slope. Concentration-response evaluation of compounds was performed with 11 concentrations of agonist peptides and EC50 values were calculated by nonlinear regression using sigmoid concentration-response with variable slope.

With `CC[C@H](C)[C@H](N)C(=O)N[C@H](C(=O)N[C@@H](CC(C)C)C(=O)N[C@@H](CO)C(=O)N[C@@H](CC(C)C)C(=O)N[C@@H](CC(=O)O)C(=O)N[C@H](C(=O)N1CCC[C@H]1C(=O)N[C@H](C(=O)NCC(=O)N[C@@H](CC(C)C)C(=O)N[C@@H](CC(C)C)C(=O)N[C@@H](CCC(N)=O)C(=O)N[C@H](C(=O)N[C@@H](CC(C)C)C(=O)N[C@@H](CC(C)C)C(=O)N[C@@H](CCC(=O)O)C(=O)N[C@@H](CCC(N)=O)C(=O)N[C@@H](C)C(=O)N[C@@H](CCCNC(=N)N)C(=O)N[C@@H](C)C(=O)N[C@@H](CCC(N)=O)C(=O)N[C@@H](C)C(=O)N[C@@H](CCC(N)=O)C(=O)N[C@@H](CCCNC(=N)N)C(=O)N[C@@H](CCC(=O)O)C(=O)N[C@@H](CCC(N)=O)C(=O)N[C@@H](C)C(=O)N[C@@H](CCCCNC(=O)COCCOCCNC(=O)COCCOCCNC(=O)CC[C@H](NC(=O)CC[C@H](NC(=O)CCCCCCCCCCCCCCCCCCC(=O)O)C(=O)O)C(=O)O)C(=O)N[C@H](C(=O)N[C@@H](CC(N)=O)C(=O)N[C@@H](C)C(=O)N[C@@H](CCC(=O)O)C(=O)N[C@H](C(=O)N[C@@H](CC(C)C)C(=O)N[C@@H](C)C(=O)N[C@@H](CCC(=O)O)C(=O)N[C@H](C(N)=O)C(C)C)[C@@H](C)CC)[C@@H](C)O)[C@@H](C)CC)[C@@H](C)CC)C(C)C)C(C)C` [SEQ ID NO: 31] (H-IVLSLDVPIGLLQILLEQARAQAQREQAK([AEEA-AEEA-γGlu-γGlu-C20 diacid])TNAEILAEV-NH2) the EC50 (hCRHR2) was 0.794 nM and the EC50 (hCRHR1) was 3980 nM.
`CCCC[C@H](NC(=O)[C@@H](NC(=O)[C@H](CCC(=O)O)NC(=O)[C@H](C)NC(=O)[C@H](CC(N)=O)NC(=O)[C@@H](NC(=O)[C@H](CCCCNC(=O)COCCOCCNC(=O)COCCOCCNC(=O)CC[C@H](NC(=O)CC[C@H](NC(=O)CCCCCCCCCCCCCCCCCCC(=O)O)C(=O)O)C(=O)O)NC(=O)[C@H](C)NC(=O)[C@H](CCC(N)=O)NC(=O)[C@H](CCC(=O)O)NC(=O)[C@H](CCCNC(=N)N)NC(=O)[C@H](CCC(N)=O)NC(=O)[C@H](C)NC(=O)[C@H](CCC(N)=O)NC(=O)[C@H](C)NC(=O)[C@H](CCCNC(=N)N)NC(=O)[C@H](C)NC(=O)[C@H](CCC(N)=O)NC(=O)[C@H](CCC(=O)O)NC(=O)[C@H](CC(C)C)NC(=O)[C@H](CC(C)C)NC(=O)[C@@H](NC(=O)[C@H](CCC(N)=O)NC(=O)[C@H](CC(C)C)NC(=O)[C@H](CC(C)C)NC(=O)CNC(=O)[C@@H](NC(=O)[C@@H]1CCCN1C(=O)[C@@H](NC(=O)[C@H](CC(=O)O)NC(=O)[C@H](CC(C)C)NC(=O)[C@H](CO)NC(=O)[C@H](CC(C)C)NC(=O)[C@@H](NC(=O)[C@@H](N)[C@@H](C)CC)C(C)C)C(C)C)[C@@H](C)CC)[C@@H](C)CC)[C@@H](C)O)[C@@H](C)CC)C(=O)N[C@@H](C)C(=O)N[C@@H](CCC(=O)O)C(=O)N[C@H](C(N)=O)C(C)C` [SEQ ID NO: 32] (H-IVLSLDVPIGLLQILLEQARAQAQREQAK([AEEA-AEEA-γGlu-γGlu-C20 diacid])TNAEI[Nle]AEV-NH2) was tested, and the EC50 (hCRHR2) was 0.316 nM and the EC50 (hCRHR1) was 25.1 nM.
`CC[C@H](C)[C@H](N)C(=O)N[C@H](C(=O)N[C@@H](CC(C)C)C(=O)N[C@@H](CO)C(=O)N[C@@H](CC(C)C)C(=O)N[C@@H](CC(=O)O)C(=O)N[C@H](C(=O)N1CCC[C@H]1C(=O)N[C@H](C(=O)NCC(=O)N[C@@H](CC(C)C)C(=O)N[C@@H](CC(C)C)C(=O)N[C@@H](CCC(N)=O)C(=O)N[C@H](C(=O)N[C@@H](CC(C)C)C(=O)N[C@@H](CC(C)C)C(=O)N[C@@H](CCC(=O)O)C(=O)N[C@@H](CCC(N)=O)C(=O)N[C@@H](C)C(=O)N[C@@H](CCCNC(=N)N)C(=O)N[C@@H](C)C(=O)N[C@@H](CCCNC(=N)N)C(=O)N[C@@H](C)C(=O)N[C@@H](CCC(N)=O)C(=O)N[C@@H](CCCNC(=N)N)C(=O)N[C@@H](CCC(=O)O)C(=O)N[C@@H](CCC(=O)O)C(=O)N[C@@H](C)C(=O)N[C@@H](CCCCNC(=O)COCCOCCNC(=O)COCCOCCNC(=O)CC[C@H](NC(=O)CC[C@H](NC(=O)CCCCCCCCCCCCCCCCCCC(=O)O)C(=O)O)C(=O)O)C(=O)N[C@H](C(=O)N[C@@H](CC(N)=O)C(=O)N[C@@H](C)C(=O)N[C@@H](CCC(=O)O)C(=O)N[C@H](C(=O)N[C@@H](CC(C)C)C(=O)N[C@@H](C)C(=O)N[C@@H](CCC(=O)O)C(=O)N[C@H](C(N)=O)C(C)C)[C@@H](C)CC)[C@@H](C)O)[C@@H](C)CC)[C@@H](C)CC)C(C)C)C(C)C` [SEQ ID NO: 33] (H-IVLSLDVPIGLLQILLEQARARAQREEAK([AEEA-AEEA-γGlu-γGlu-C20 diacid])TNAEILAEV-NH2) gave an EC50 (hCRHR2) of 1.26 nM and an EC50 (hCRHR1) of 126000 nM.
`CCCC[C@H](NC(=O)[C@@H](NC(=O)[C@H](CCC(=O)O)NC(=O)[C@H](C)NC(=O)[C@H](CC(N)=O)NC(=O)[C@@H](NC(=O)[C@H](CCCCNC(=O)COCCOCCNC(=O)COCCOCCNC(=O)CC[C@H](NC(=O)CC[C@H](NC(=O)CCCCCCCCCCCCCCCCCCC(=O)O)C(=O)O)C(=O)O)NC(=O)[C@H](C)NC(=O)[C@H](CCC(=O)O)NC(=O)[C@H](CCC(=O)O)NC(=O)[C@H](CCCNC(=N)N)NC(=O)[C@H](CCC(N)=O)NC(=O)[C@H](C)NC(=O)[C@H](CCCNC(=N)N)NC(=O)[C@H](C)NC(=O)[C@H](CCCNC(=N)N)NC(=O)[C@H](C)NC(=O)[C@H](CCC(N)=O)NC(=O)[C@H](CCC(=O)O)NC(=O)[C@H](CC(C)C)NC(=O)[C@H](CC(C)C)NC(=O)[C@@H](NC(=O)[C@H](CCC(N)=O)NC(=O)[C@H](CC(C)C)NC(=O)[C@H](CC(C)C)NC(=O)CNC(=O)[C@@H](NC(=O)[C@@H]1CCCN1C(=O)[C@@H](NC(=O)[C@H](CC(=O)O)NC(=O)[C@H](CC(C)C)NC(=O)[C@H](CO)NC(=O)[C@H](CC(C)C)NC(=O)[C@@H](NC(=O)[C@@H](N)[C@@H](C)CC)C(C)C)C(C)C)[C@@H](C)CC)[C@@H](C)CC)[C@@H](C)O)[C@@H](C)CC)C(=O)N[C@@H](C)C(=O)N[C@@H](CCC(=O)O)C(=O)N[C@H](C(N)=O)C(C)C` [SEQ ID NO: 34] (H-IVLSLDVPIGLLQILLEQARARAQREEAK([AEEA-AEEA-γGlu-γGlu-C20 diacid])TNAEI[Nle]AEV-NH2) showed an EC50 (hCRHR2) of 0.251 nM and an EC50 (hCRHR1) of 100000 nM.
Compound `CC[C@H](C)[C@H](N)C(=O)N[C@H](C(=O)N[C@@H](CC(C)C)C(=O)N[C@@H](CO)C(=O)N[C@@H](CC(C)C)C(=O)N[C@@H](CC(=O)O)C(=O)N[C@H](C(=O)N1CCC[C@H]1C(=O)N[C@H](C(=O)NCC(=O)N[C@@H](CC(C)C)C(=O)N[C@@H](CC(C)C)C(=O)N[C@@H](CCC(N)=O)C(=O)N[C@H](C(=O)N[C@@H](CC(C)C)C(=O)N[C@@H](CC(C)C)C(=O)N[C@@H](CCC(=O)O)C(=O)N[C@@H](CCC(N)=O)C(=O)N[C@@H](C)C(=O)N[C@@H](CCCNC(=N)N)C(=O)N[C@@H](C)C(=O)N[C@@H](CCCNC(=N)N)C(=O)N[C@@H](CO)C(=O)N[C@@H](C)C(=O)N[C@@H](CCCNC(=N)N)C(=O)N[C@@H](CCC(=O)O)C(=O)N[C@@H](CCC(N)=O)C(=O)N[C@@H](C)C(=O)N[C@@H](CCCCNC(=O)COCCOCCNC(=O)COCCOCCNC(=O)CC[C@H](NC(=O)CC[C@H](NC(=O)CCCCCCCCCCCCCCCCCCC(=O)O)C(=O)O)C(=O)O)C(=O)N[C@H](C(=O)N[C@@H](CC(N)=O)C(=O)N[C@@H](C)C(=O)N[C@@H](CCC(=O)O)C(=O)N[C@H](C(=O)N[C@@H](CC(C)C)C(=O)N[C@@H](C)C(=O)N[C@@H](CCC(=O)O)C(=O)N[C@H](C(N)=O)[C@@H](C)CC)[C@@H](C)CC)[C@@H](C)O)[C@@H](C)CC)[C@@H](C)CC)C(C)C)C(C)C` [SEQ ID NO: 35] (H-IVLSLDVPIGLLQILLEQARARSAREQAK([AEEA-AEEA-γGlu-γGlu-C20 diacid])TNAEILAEI-NH2) has an EC50 (hCRHR2) of 0.501 nM and an EC50 (hCRHR1) of 79400 nM.
